Results taken from US12668568B2, “Adamantanyl-substituted benzamide compounds and their use as P2X7 receptor antagonists” (The University of Sydney, priority 2018, dated 2026).

Columns and labels:
[1] = Lipophilicity: Log D7.4 determined by HPLC method; assay type: physicochemical; conditions: for logD7.4 / chromatographic logD: HPLC retention time, 65 v/v % methanol in 50 mM sodium phosphate buffer pH 7.4; for chromatographic logD: reversed-phase HPLC, Waters Sunfire C18 5 µm column, read-out: logD7.4; for lipophilicity compared with compound 31: HPLC logD7.4
Experimental: Lipophilicity of the compounds was evaluated by an experimentally derived Log D7.4 value determined by a HPLC method.^1 It is preferred that the lipophilicity of the compounds is as low as possible.
High Performance Liquid Chromatography was performed on a Waters 2695 Separations module equipped with the Waters Alliance Series Column Heater (set at 30° C.) and Waters 2996 Photodiode Array (PDA) Detector. […] Standards and samples were dissolved in the elution solvent mixture and then filtered prior to injection. Data acquisition and processing was performed with the Waters Empower 2 software and Microsoft Excel™ was used for data analysis. All standards and samples were analyzed in triplicate.
. An […] curve was obtained (FIG. 1) which was fitted to the equation [Log D7.4=0.8342(RET)+1.7393] with an R^2 of 0.97.
The RET from three injections was averaged with the log D7.4 value extrapolated from the equation found in FIG. 1.

CYP2C9 = molecular target: T1, CYP2C9 (Homo sapiens, UniProt P11712); test: Cytochrome profiling CYP2C9 (baculosomes); assay type: in vitro ADME; conditions: probe fluorogenic probe substrate (not named), 10 μM substrate
T1 construct: host or cells: insect cells infected with recombinant baculovirus (microsomes)
T1 sequence (P11712 whole entry): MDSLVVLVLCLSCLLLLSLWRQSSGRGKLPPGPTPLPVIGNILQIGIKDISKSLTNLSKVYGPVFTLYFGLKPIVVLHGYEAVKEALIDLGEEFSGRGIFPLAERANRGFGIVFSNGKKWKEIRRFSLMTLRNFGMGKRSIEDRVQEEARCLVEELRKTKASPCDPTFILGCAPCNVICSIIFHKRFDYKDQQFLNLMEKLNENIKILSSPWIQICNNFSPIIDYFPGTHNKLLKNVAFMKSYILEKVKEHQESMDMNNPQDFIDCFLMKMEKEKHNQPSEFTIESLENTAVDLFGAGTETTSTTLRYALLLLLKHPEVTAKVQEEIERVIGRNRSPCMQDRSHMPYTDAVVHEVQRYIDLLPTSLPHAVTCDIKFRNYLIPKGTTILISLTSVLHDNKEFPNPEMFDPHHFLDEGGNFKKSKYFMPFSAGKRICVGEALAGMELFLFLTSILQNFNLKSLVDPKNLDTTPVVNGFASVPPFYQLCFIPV
Description: (§1) Cytochrome P450 (abbreviated CYP, P450 or CYP450) belong to very large and diverse superfamily of haemoproteins which accept both exogenous and endogenous compounds as substrates in enzymatic reactions and play a major role in drug metabolism. Although this class has more than 50 enzymes just 5 of them (CYP1A2, CYP2C9, CYP2C19, CYP2D6 and CYP3A4) are able to metabolise almost 90% of all drugs. Inhibition of these enzymes is one of the major reasons for drug-drug interactions. Consequently, detailed CYP inhibition profiles are a regulatory requirement for all new drugs. Inhibition potencies against the five most relevant CYP isoforms is performed using baculosomes; microsomes prepared from insect cells infected with recombinant baculovirus containing cDNA for a specific human P450 isozyme. The baculosomes are incubated with drug at a concentration of 1 μM in the presence of a probe substrate for 60 minutes at 37° C. The probe is normally metabolised by the baculosomes to produce a fluorescent metabolite. A substrate drug will compete for the isozyme and reduce the metabolism of the probe resulting in a decrease in the fluorescent signal. The percent inhibition due to the presence of the test compound is calculated using the following equation: [formula] • X=fluorescent intensity observed in the presence of test compound • A=fluorescent intensity observed in control • B=fluorescent intensity observed in the presence of the probe control

CYP2C19 = molecular target: T2, CYP2C19 (Homo sapiens, UniProt P33261); test: Cytochrome profiling CYP2C19 (baculosomes); assay type: in vitro ADME; conditions: probe fluorogenic probe substrate (not named), 10 μM substrate
T2 construct: host or cells: insect cells infected with recombinant baculovirus (microsomes)
T2 sequence (P33261 whole entry): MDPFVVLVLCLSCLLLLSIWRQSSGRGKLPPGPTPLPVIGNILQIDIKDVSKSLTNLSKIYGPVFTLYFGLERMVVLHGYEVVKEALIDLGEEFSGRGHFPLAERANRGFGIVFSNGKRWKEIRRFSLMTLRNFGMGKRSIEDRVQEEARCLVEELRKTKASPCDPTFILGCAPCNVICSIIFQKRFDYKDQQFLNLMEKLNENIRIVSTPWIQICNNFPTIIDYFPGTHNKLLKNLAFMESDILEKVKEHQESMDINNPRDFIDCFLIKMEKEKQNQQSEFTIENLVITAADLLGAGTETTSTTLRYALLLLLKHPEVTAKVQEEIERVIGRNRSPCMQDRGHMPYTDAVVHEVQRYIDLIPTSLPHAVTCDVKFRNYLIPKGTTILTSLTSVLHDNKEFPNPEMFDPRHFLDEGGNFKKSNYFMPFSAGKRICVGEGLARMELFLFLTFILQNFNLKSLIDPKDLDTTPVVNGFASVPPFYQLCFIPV
Description: as §1

CYP2D6 = molecular target: T3, CYP2D6 (Homo sapiens, UniProt P10635); test: Cytochrome profiling CYP2D6 (baculosomes); assay type: in vitro ADME; conditions: probe fluorogenic probe substrate (not named), 10 μM substrate
T3 construct: host or cells: insect cells infected with recombinant baculovirus (microsomes)
T3 sequence (P10635 whole entry): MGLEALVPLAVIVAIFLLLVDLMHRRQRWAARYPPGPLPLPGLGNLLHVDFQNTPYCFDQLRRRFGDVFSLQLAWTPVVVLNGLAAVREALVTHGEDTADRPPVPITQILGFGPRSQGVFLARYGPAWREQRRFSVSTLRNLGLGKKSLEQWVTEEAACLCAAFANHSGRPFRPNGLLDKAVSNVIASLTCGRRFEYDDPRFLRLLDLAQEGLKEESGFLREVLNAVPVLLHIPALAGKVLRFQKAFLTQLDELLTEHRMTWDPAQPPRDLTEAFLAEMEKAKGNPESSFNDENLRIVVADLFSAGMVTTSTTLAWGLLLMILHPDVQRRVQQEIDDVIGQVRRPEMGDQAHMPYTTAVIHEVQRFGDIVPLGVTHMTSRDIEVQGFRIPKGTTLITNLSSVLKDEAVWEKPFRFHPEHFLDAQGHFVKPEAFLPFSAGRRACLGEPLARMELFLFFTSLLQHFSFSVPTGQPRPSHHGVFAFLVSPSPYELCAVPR
Description: as §1

CYP3A4 = molecular target: T4, CYP3A4 (Homo sapiens, UniProt P08684); test: Cytochrome profiling CYP3A4 (baculosomes); assay type: in vitro ADME; conditions: probe fluorogenic probe substrate (not named), 10 μM substrate
T4 construct: host or cells: insect cells infected with recombinant baculovirus (microsomes)
T4 sequence (P08684 whole entry): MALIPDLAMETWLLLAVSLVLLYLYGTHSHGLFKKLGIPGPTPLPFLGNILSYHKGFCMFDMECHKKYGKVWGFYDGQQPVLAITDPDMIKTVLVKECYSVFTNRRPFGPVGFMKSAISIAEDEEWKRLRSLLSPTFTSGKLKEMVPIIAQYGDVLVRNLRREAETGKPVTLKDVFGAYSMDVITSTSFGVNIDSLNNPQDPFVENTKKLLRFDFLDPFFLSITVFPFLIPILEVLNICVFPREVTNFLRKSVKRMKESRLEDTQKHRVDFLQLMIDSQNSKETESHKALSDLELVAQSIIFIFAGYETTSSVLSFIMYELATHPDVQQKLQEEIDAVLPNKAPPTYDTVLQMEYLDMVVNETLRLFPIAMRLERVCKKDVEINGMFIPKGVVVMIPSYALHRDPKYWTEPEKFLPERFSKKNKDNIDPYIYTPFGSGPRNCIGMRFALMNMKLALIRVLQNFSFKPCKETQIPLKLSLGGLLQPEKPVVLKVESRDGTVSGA
Description: as §1

hP2X7R = molecular target: T5, hP2X7R (Homo sapiens, UniProt Q99572); test: Yo-Pro uptake assay for P2X7R pore formation in THP-1 cells; assay type: cell-based; set-up: Following an overnight incubation (16 h) required for THP-1 differentiation; endogenous in cells; host or cells: THP-1 (ATCC), differentiated with LPS and IFN-gamma; conditions: for IC50: THP-1 cells, BzATP 100 μM, YO-PRO-1, mean ± standard deviation, n >4, read-out: Dye uptake IC50 hP2X7R; for LLE: pIC50 from dye uptake and LogD from HPLC
T5 sequence (Q99572 1-595): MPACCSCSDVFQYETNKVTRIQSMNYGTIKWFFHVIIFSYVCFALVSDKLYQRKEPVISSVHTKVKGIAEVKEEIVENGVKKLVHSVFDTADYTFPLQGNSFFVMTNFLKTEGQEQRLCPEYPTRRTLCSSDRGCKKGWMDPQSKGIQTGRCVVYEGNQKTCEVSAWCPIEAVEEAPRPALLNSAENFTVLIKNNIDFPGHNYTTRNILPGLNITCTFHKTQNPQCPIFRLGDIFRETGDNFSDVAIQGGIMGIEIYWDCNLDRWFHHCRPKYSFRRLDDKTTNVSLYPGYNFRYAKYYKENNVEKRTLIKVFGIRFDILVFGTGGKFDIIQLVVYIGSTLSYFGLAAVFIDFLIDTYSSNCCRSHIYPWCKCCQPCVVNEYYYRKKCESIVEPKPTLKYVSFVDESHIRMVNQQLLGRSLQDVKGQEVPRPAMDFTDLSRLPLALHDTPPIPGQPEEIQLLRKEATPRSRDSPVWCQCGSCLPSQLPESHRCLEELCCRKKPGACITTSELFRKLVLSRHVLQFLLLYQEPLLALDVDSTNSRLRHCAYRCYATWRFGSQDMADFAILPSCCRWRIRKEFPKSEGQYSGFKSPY
Experimental: HEK293T cells transfected with cDNA for the human (HEK-hP2X7) or mouse P2X7 (HEK-mP2X7) receptor (a kind gift from Dr Leanne Stokes and Prof. Jim Wiley) were cultured in DMEM/F12 with 10% FBS and 500 μg/mL G418 (all from Invitrogen). Cells were cultured in 75 cm^2 flasks and incubated at 37° C. in a 5% CO2 humidified atmosphere, maintained in log phase of growth and passaged when cell density reached 1×10^6 cells/mL (every 2-3 days).^3
P2X7R pore formation was assessed by agonist-induced uptake of the Yo-Pro-1 iodide dye. […] Final treatments (in triplicate) were made up in phosphate buffered saline (PBS), without divalent cations, containing PRO®-1 dye (2 μM). Cells were washed once in pre-warmed PBS and treatments were added to cells, with or without 2′(3′)-O-(4-benzoylbenzoyl)adenosine 5′-triphosphate (BzATP, 100 μM) as agonist. Dye uptake was measured at 37° C. using a fluorescence plate reader (BMG Labtech); with data read at λEx485nm/λEm520nm at 30 sec intervals over a 70 min period. […] IC50 values were determined from concentration-response curves derived from a four-parameter variable slope, analyzed in GraphPad Prism® (San Diego, CA).

Compound | logD7.4 [1] | chromatographic logD [1] | inhibition at 60 min, 1 μM (CYP2C9) [%] | inhibition at 60 min, 1 μM (CYP2C19) [%] | inhibition at 60 min, 1 μM (CYP2D6) [%] | inhibition at 60 min, 1 μM (CYP3A4) [%] | IC50 (hP2X7R) [nM] | LLE (hP2X7R) | lipophilicity compared with compound 31 [1]
COc1ccc(Cl)c(C(=O)NCC23CC4CC(CC(C4)C2)C3)c1 [Compound 31, reference compound] | 4.23 | 4.23 | 75 | 84.4 | -47.3 | 84.4 | 10.5 ± 3.1 | 3.75 | –
COc1ccc(Cl)c(C(=O)NCC23CC4CC(CC(F)(C4)C2)C3)c1 [Compound 3, 2-Chloro-N-((3-fluoroadamantan-1-yl)methyl)-5-methoxybenzamide] | 3.27 | 3.27 | 32.3 | 46.9 | -28.9 | 88.8 | 25.1 ± 2.7 | 4.33 | less lipophilic than compound 31
COc1ccc(Cl)c(C(=O)NCC23CC4(F)CC(F)(CC(F)(C4)C2)C3)c1 [Compound 1, 2-Chloro-N-((3,5,7-trifluoroadamantan-1-yl)methyl)-5-methoxybenzamide] | 2.83 | 2.83 | 9.26 | 12.9 | -29.1 | 89.9 | – | – | less lipophilic than compound 31
COc1ccc(Cl)c(C(=O)NCC23CC4CC(F)(CC(F)(C4)C2)C3)c1 [Compound 2, 2-Chloro-N-((3,5-difluoroadamantan-1-yl)methyl)-5-methoxybenzamide] | 2.85 | 2.85 | -3 | 1.5 | -25.3 | 89.9 | 30.9 ± 8 | 4.66 | less lipophilic than compound 31
